Test results taken from US20010021697A1, “METHODS AND COMPOSITIONS FOR THE TREATMENT OF MAMMALIAN INFECTIONS EMPLOYING MEDICAMENTS COMPRISING HYMENOPTERA VENOM, PROTEINAGEOUS OR POLYPEPTIDE COMPONENTS THEREOF, OR ANALOGUES OF SUCH PROTEINACEOUS OR POLYPEPTIDE COMPONENTS” (priority 1987, published 2001).
“And” between values parts separate entries of the source, which are not always exact repeats. Identical values can stand only once.

Tests used:
Type in all cases: cell-based
[1] = tested on: E. Coli strain No. G1108E; test: Checkerboard titration synergy assay of natural melittin and analogue #6 with polymyxin B; details: 12 hrs
[2] = tested on: kanamycin resistant S. aureus; test: Checkerboard titration assay for synergy of honeybee venom with antibiotics (OD660 growth curves)
Escherichia coli = test: Growth curves with polymyxin B and bumble bee, yellowjacket or baldfaced hornet venom; details: for optical density, AVERAGE: AVERAGE line; for optical density: single replicates
Method: The activity of hymenoptera venom other than HBV was also determined for bumblee venom, yellow jacket venom and bald faced hornet venom, as shown below in Tables 8, 9

[3] = 0 hours after innoculation, YJ 5 ug/ml, BF 5 ug/ml, Pol B 3.125 U/ml alone, Pol B 5 U/ml in the combinations
[4] = 0 hours after innoculation, doses of what is present: Pol B 3.125 Units/ml, BB Venom 5 ug/ml
[5] = 0 hours after innoculation, doses of what is present: Pol B 6.25 Units/ml, BB Venom 20 ug/ml
[6] = 2 hours after innoculation, YJ 5 ug/ml, BF 5 ug/ml, Pol B 3.125 U/ml alone, Pol B 5 U/ml in the combinations
[7] = 2 hours after innoculation, doses of what is present: Pol B 3.125 Units/ml, BB Venom 5 ug/ml
[8] = 2 hours after innoculation, doses of what is present: Pol B 6.25 Units/ml, BB Venom 20 ug/ml
[9] = 4 hours after innoculation, YJ 5 ug/ml, BF 5 ug/ml, Pol B 3.125 U/ml alone, Pol B 5 U/ml in the combinations
[10] = 4 hours after innoculation, doses of what is present: Pol B 3.125 Units/ml, BB Venom 5 ug/ml
[11] = 4 hours after innoculation, doses of what is present: Pol B 6.25 Units/ml, BB Venom 20 ug/ml
[12] = 6 hours after innoculation, YJ 5 ug/ml, BF 5 ug/ml, Pol B 3.125 U/ml alone, Pol B 5 U/ml in the combinations
[13] = 6 hours after innoculation, doses of what is present: Pol B 3.125 Units/ml, BB Venom 5 ug/ml
[14] = 8 hours after innoculation, YJ 5 ug/ml, BF 5 ug/ml, Pol B 3.125 U/ml alone, Pol B 5 U/ml in the combinations
[15] = 8 hours after innoculation, doses of what is present: Pol B 3.125 Units/ml, BB Venom 5 ug/ml
[16] = 8 hours after innoculation, doses of what is present: Pol B 6.25 Units/ml, BB Venom 20 ug/ml
[17] = 12 hours after innoculation, YJ 5 ug/ml, BF 5 ug/ml, Pol B 3.125 U/ml alone, Pol B 5 U/ml in the combinations
[18] = 12 hours after innoculation, doses of what is present: Pol B 3.125 Units/ml, BB Venom 5 ug/ml
[19] = 12 hours after innoculation, doses of what is present: Pol B 6.25 Units/ml, BB Venom 20 ug/ml

Polymyxin B
Average optical densities (OD660) ([1]; doses of what is present: Polymyxin B 3 units, peptide 5 ug): 1.15 | Average optical densities (OD660) ([1]; doses of what is present: Polymyxin B 6 units, peptide 10 ug): .930 | susceptibility to polymyxin B compared with the parent strain [2]: more susceptible to polymyxin B than the parent strain | MEAN A660 ([2]; POLY B = 12.5, HBV = 0, T0): 0.009 | MEAN A660 ([2]; POLY B = 12.5, HBV = 0, T2): 0.068 | MEAN A660 ([2]; POLY B = 12.5, HBV = 0, T4): 0.266 | MEAN A660 ([2]; POLY B = 12.5, HBV = 0, T6): 0.640 | MEAN A660 ([2]; POLY B = 12.5, HBV = 0, T8): 0.826 | MEAN A660 ([2]; POLY B = 12.5, HBV = 0, T12): 0.976 | MEAN A660 ([2]; POLY B = 12.5, HBV = 0, T24): 0.962 | MEAN A660 ([2]; POLY B = 25, HBV = 0, T0): 0.009 | MEAN A660 ([2]; POLY B = 25, HBV = 0, T2): 0.068 | MEAN A660 ([2]; POLY B = 25, HBV = 0, T4): 0.243 | MEAN A660 ([2]; POLY B = 25, HBV = 0, T6): 0.629 | MEAN A660 ([2]; POLY B = 25, HBV = 0, T8): 0.835 | MEAN A660 ([2]; POLY B = 25, HBV = 0, T12): 1.008 | MEAN A660 ([2]; POLY B = 25, HBV = 0, T24): 1.048 | MEAN A660 ([2]; POLY B = 50, HBV = 0, T0): 0.009 | MEAN A660 ([2]; POLY B = 50, HBV = 0, T2): 0.068 | MEAN A660 ([2]; POLY B = 50, HBV = 0, T4): 0.208 | MEAN A660 ([2]; POLY B = 50, HBV = 0, T6): 0.376 | MEAN A660 ([2]; POLY B = 50, HBV = 0, T8): 0.567 | MEAN A660 ([2]; POLY B = 50, HBV = 0, T12): 0.841 | MEAN A660 ([2]; POLY B = 50, HBV = 0, T24): 0.968 | MEAN A660 ([2]; POLY B = 100, HBV = 0, T0): 0.009 | MEAN A660 ([2]; POLY B = 100, HBV = 0, T2): 0.068 | MEAN A660 ([2]; POLY B = 100, HBV = 0, T4): 0.243 | MEAN A660 ([2]; POLY B = 100, HBV = 0, T6): 0.629 | MEAN A660 ([2]; POLY B = 100, HBV = 0, T8): 0.835 | MEAN A660 ([2]; POLY B = 100, HBV = 0, T12): 1.008 | MEAN A660 ([2]; POLY B = 100, HBV = 0, T24): 1.048 | optical density, AVERAGE (Escherichia coli; [3]): .038 | optical density (Escherichia coli; [3]): .038 | optical density, AVERAGE (Escherichia coli; [4]): .030 | optical density (Escherichia coli; [4]): .030 | optical density, AVERAGE (Escherichia coli; [5]): .030 | optical density (Escherichia coli; [5]): .030 | optical density, AVERAGE (Escherichia coli; [6]): .480 | optical density (Escherichia coli; [6]): .477 and .482 | optical density, AVERAGE (Escherichia coli; [7]): .649 | optical density (Escherichia coli; [7]): .654 and .642 and .652 | optical density, AVERAGE (Escherichia coli; [8]): .023 | optical density (Escherichia coli; [8]): .022 (2×) and .024 | optical density, AVERAGE (Escherichia coli; [9]): 1.03 | optical density (Escherichia coli; [9]): 1.03 | optical density, AVERAGE (Escherichia coli; [10]): 1.02 | optical density (Escherichia coli; [10]): 1.03 and 1.02 (2×) | optical density, AVERAGE (Escherichia coli; [11]): .251 | optical density (Escherichia coli; [11]): .102 and .472 and .180 | optical density, AVERAGE (Escherichia coli; [12]): 1.07 | optical density (Escherichia coli; [12]): 1.07 | optical density, AVERAGE (Escherichia coli; [13]): 1.03 | optical density (Escherichia coli; [13]): 1.03 | optical density, AVERAGE (Escherichia coli; 6 hours after innoculation, doses of what is present: Pol B 6.25 Units/ml, BB Venom 20 ug/ml): .827 | optical density, AVERAGE (Escherichia coli; [14]): 1.08 | optical density (Escherichia coli; [14]): 1.08 | optical density, AVERAGE (Escherichia coli; [15]): 1.04 | optical density (Escherichia coli; [15]): 1.04 | optical density, AVERAGE (Escherichia coli; [16]): .960 | optical density (Escherichia coli; [16]): .960 and .950 and .970 | optical density, AVERAGE (Escherichia coli; [17]): 1.14 | optical density (Escherichia coli; [17]): 1.14 | optical density, AVERAGE (Escherichia coli; [18]): 1.13 | optical density (Escherichia coli; [18]): 1.12 and 1.14 (2×) | optical density, AVERAGE (Escherichia coli; [19]): 1.03 | optical density (Escherichia coli; [19]): 1.03 (2×) and 1.04
